# Source: patent US20240309016A1, “MACROCYCLIC HETEROCYCLE COMPOUNDS AND USE THEREOF” (TAKEDA PHARMACEUTICAL COMPANY LIMITED, priority 2023, published 2024)
# Molecular target: T1, human OX2 receptor (Homo sapiens, UniProt O43614)
# T1 construct: expressed in transfected cells
# T1 sequence (O43614 1-444): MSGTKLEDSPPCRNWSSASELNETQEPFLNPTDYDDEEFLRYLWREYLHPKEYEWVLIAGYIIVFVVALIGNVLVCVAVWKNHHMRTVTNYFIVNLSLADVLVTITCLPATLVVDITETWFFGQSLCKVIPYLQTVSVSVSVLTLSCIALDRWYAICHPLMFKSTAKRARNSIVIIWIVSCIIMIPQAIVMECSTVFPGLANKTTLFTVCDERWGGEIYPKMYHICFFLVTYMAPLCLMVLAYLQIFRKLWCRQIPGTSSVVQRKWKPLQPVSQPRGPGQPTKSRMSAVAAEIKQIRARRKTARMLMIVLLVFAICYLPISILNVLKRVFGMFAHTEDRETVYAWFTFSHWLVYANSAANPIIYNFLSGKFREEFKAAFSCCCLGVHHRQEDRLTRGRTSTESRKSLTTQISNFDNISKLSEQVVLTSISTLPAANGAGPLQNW
# Assay: Measurement of orexin type 2 receptor agonist activity (Experimental Example 2; Fluo-4 AM calcium fluorescence, FDSS μCELL)
# Type: cell-based
# Conditions: compound at 3 μM; CHO cells expressing human OX2 receptor; DMSO = 0%, 10 nM orexin A (human) = 100%
# In short: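 Agonism was tested in CHO-K1 cells stably expressing human OX2 receptor (residues 1-444), loaded with Fluo-4 AM plus probenecid. Calcium fluorescence was recorded for 1 min 40 s after compound addition. Activity (%) was scaled between DMSO (0%) and 10 nM orexin A (100%) and reported at 3 μM compound.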
row,Structure (SMILES),"OX2R agonist activity (3 μM, %) [%]"
1,"Cc1cnc2nc1Oc1cccc(c1F)C[C@H]1[C@@H](NS(C)(=O)=O)C(F)(F)CN1C(=O)[C@@H]1C[C@@H](F)CN21 [Example 74, N-[(2R,16aS,17R,21aS)-2,18,18,22-tetrafluoro-8-methyl-21-oxo-2,3,16a,17,18,19,21,21a-octahydro-1H,16H-5,9-(azeno)-11,15-(metheno)dipyrrolo[1,2-g:1′,2′-j][1,5,7,10]oxatriazacyclo-heptadecin-17-yl]methanesulfonamide]",96
2,"Cc1ccc2nc1COc1cccc(c1F)C[C@H]1[C@@H](NS(C)(=O)=O)C(F)(F)CN1C(=O)CO2 [Example 66, N-[(16aS,17R)-18,18,21-trifluoro-7-methyl-1-oxo-1,2,16a,17,18,19-hexahydro-9H,16H-4,8-(azeno)-11,15-(metheno)pyrrolo[1,2-d][1,12,4]dioxazacyclo-octadecin-17-yl]methanesulfonamide]",97
3,"CS(=O)(=O)N[C@@H]1[C@@H]2Cc3cccc(c3F)Oc3nc(ncc3Cl)OCC(=O)N2CC1(F)F [Example 64, N-[(15aS,16R)-7-chloro-17,17,20-trifluoro-1-oxo-1,2,15a,16,17,18-hexahydro-15H-4,8-(azeno)-10,14-(metheno)pyrrolo[2,1-n][1,7,3,15]dioxadiazacyclo-heptadecin-16-yl]methanesulfonamide]",105
4,"Cc1ncc2nc1Oc1cccc(c1F)C[C@H]1[C@@H](NS(C)(=O)=O)C(F)(F)CN1C(=O)CO2 [Example 65, N-[(15aS,16R)-17,17,20-trifluoro-7-methyl-1-oxo-1,2,15a,16,17,18-hexahydro-15H-4,8-(azeno)-10,14-(metheno)pyrrolo[1,2-j][1,7,4,10]dioxadiazacyclo-heptadecin-16-yl]methanesulfonamide]",102
5,"O=C1NCc2nc(c(Cl)cc2F)Oc2cccc(c2F)C[C@H]2[C@@H](NS(=O)(=O)C3CC3)C(F)(F)CN12 [Example 58, N-[(15aS,16R)-7-chloro-5,17,17,20-tetrafluoro-1-oxo-2,3,15a,16,17,18-hexahydro-1H,15H-4,8-(azeno)-14,10-(metheno)pyrrolo[1,2-j][1,8,10]oxadiazacyclo-heptadecin-16-yl]cyclopropanesulfonamide]",106
6,"Cc1cnc2nc1Oc1cccc(c1F)C[C@H]1[C@@H](NS(C)(=O)=O)C(F)(F)CN1C(=O)C1CCN21 (stereo partly drawn) [Example 52, N-[(15aS,16R)-17,17,21-trifluoro-7-methyl-20-oxo-1,2,15a,16,17,18,20,20a-octahydro-15H-4,8-(azeno)-10,14-(metheno)azeto[1,2-g]pyrrolo[1,2-j][1,5,7,10]oxatriazacyclo-heptadecin-16-yl]methanesulfonamide (optical isomer)]",93
7,"CCS(=O)(=O)N[C@@H]1[C@@H]2Cc3cccc(c3F)Oc3nc(c(F)cc3Cl)CNC(=O)N2CC1(F)F [Example 35, N-[(15aS,16R)-7-chloro-5,17,17,20-tetrafluoro-1-oxo-2,3,15a,16,17,18-hexahydro-1H,15H-4,8-(azeno)-10,14-(metheno)pyrrolo[1,2-j][1,8,10]oxadiazacyclo-heptadecin-16-yl]ethanesulfonamide]",93
8,"CCS(=O)(=O)N[C@@H]1[C@@H]2Cc3cccc(c3F)Oc3nc(cnc3C)OCC(=O)N2CC1(F)F [Example 81, N-[(15aS,16R)-17,17,20-trifluoro-7-methyl-1-oxo-1,2,15a,16,17,18-hexahydro-15H-4,8-(azeno)-10,14-(metheno)pyrrolo[1,2-j][1,7,4,10]dioxadiazacyclo-heptadecin-16-yl]ethanesulfonamide]",102
9,"Cc1cnc2nc1Oc1cccc(c1F)C[C@H]1[C@@H](NS(C)(=O)=O)C(F)(F)CN1C(=O)CN2C [Example 75, N-[(15aS,16R)-17,17,20-trifluoro-3,7-dimethyl-1-oxo-2,3,15a,16,17,18-hexahydro-1H,15H-4,8-(azeno)-10,14-(metheno)pyrrolo[1,2-j][1,5,7,10]oxatriazacyclo-heptadecin-16-yl]methanesulfonamide]",95

# Now from value to compound:
row,"OX2R agonist activity (3 μM, %) [%]",Structure (SMILES)
1,108,"CN1Cc2ccc(Cl)c(n2)Oc2cccc(c2F)C[C@H]2[C@@H](NS(C)(=O)=O)C(F)(F)CN2C1=O [Example 57, N-[(15aS,16R)-7-chloro-17,17,20-trifluoro-2-methyl-1-oxo-2,3,15a,16,17,18-hexahydro-1H,15H-4,8-(azeno)-14,10-(metheno)pyrrolo[1,2-j][1,8,10]oxadiazacyclo-heptadecin-16-yl]methanesulfonamide]"
2,99,"COCS(=O)(=O)N[C@@H]1[C@@H]2Cc3cccc(c3F)Oc3nc(ccc3C)CNC(=O)N2CC1(F)F [Example 46, 1-methoxy-N-[(15aS,16R)-17,17,20-trifluoro-7-methyl-1-oxo-2,3,15a,16,17,18-hexahydro-1H,15H-4,8-(azeno)-14,10-(metheno)pyrrolo[1,2-j][1,8,10]oxadiazacyclo-heptadecin-16-yl]methanesulfonamide]"
3,105,"CCS(=O)(=O)N[C@H]1[C@@H](F)CN2C(=O)NCc3ccc(C)c(n3)Oc3cccc(c3F)C[C@@H]12 [Example 25, N-[(15aS,16R,17S)-17,20-difluoro-7-methyl-1-oxo-2,3,15a,16,17,18-hexahydro-1H,15H-4,8-(azeno)-14,10-(metheno)pyrrolo[1,2-j][1,8,10]oxadiazacyclo-heptadecin-16-yl]ethanesulfonamide]"
4,101,"CN(C)S(=O)(=O)N[C@H]1[C@@H](F)CN2C(=O)NCc3ccc(C(F)F)c(n3)Oc3cccc(c3F)C[C@@H]12 [Example 37, N′-[(15aS,16R,17S)-7-(difluoromethyl)-17,20-difluoro-1-oxo-2,3,15a,16,17,18-hexahydro-1H,15H-8,4-(azeno)-10,14-(metheno)pyrrolo[1,2-j][1,8,10]oxadiazacyclo-heptadecin-16-yl]-N,N-dimethylsulfuric diamide]"
5,88,"CCS(=O)(=O)N[C@@H]1[C@@H]2Cc3cccc(c3F)Oc3ccc(F)c(n3)CNC(=O)N2CC1(F)F [Example 50, N-[(15aS,16R)-5,17,17,20-tetrafluoro-1-oxo-2,3,15a,16,17,18-hexahydro-1H,15H-4,8-(azeno)-14,10-(metheno)pyrrolo[1,2-j][1,8,10]oxadiazacyclo-heptadecin-16-yl]ethanesulfonamide]"
6,99,"CS(=O)(=O)N[C@H]1[C@@H](F)CN2C(=O)NCc3ccc(Cl)c(c3)Oc3cccc(c3F)C[C@@H]12 [Example 12, N-[(15aS,16R,17S)-7-chloro-17,20-difluoro-1-oxo-2,3,15a,16,17,18-hexahydro-1H,15H-4,8:14,10-di(metheno)pyrrolo[1,2-j][1,8,10]oxadiazacyclo-heptadecin-16-yl]methanesulfonamide]"
7,102,"CCS(=O)(=O)N[C@@H]1[C@@H]2Cc3cccc(c3F)Oc3nc(ccc3OC)CNC(=O)N2CC1(F)F [Example 26, N-[(15aS,16R)-17,17,20-trifluoro-7-methoxy-1-oxo-2,3,15a,16,17,18-hexahydro-1H,15H-4,8-(azeno)-10,14-(metheno)pyrrolo[1,2-j][1,8,10]oxadiazacyclo-heptadecin-16-yl]ethanesulfonamide]"
8,100,"CS(=O)(=O)N[C@H]1CCN2C(=O)NCc3ccc(C(F)F)c(n3)Oc3cccc(c3)C[C@@H]12 [Example 8, N-[(15aS,16S)-7-(difluoromethyl)-1-oxo-2,3,15a,16,17,18-hexahydro-1H,15H-4,8-(azeno)-14,10-(metheno)pyrrolo[1,2-j][1,8,10]oxadiazacyclo-heptadecin-16-yl]methanesulfonamide]"
9,101,"CCS(=O)(=O)N[C@H]1CCN2C(=O)NCc3ccc(C)c(n3)Oc3cccc(c3)C[C@@H]12 [Example 3, N-[(15aS,16S)-7-methyl-1-oxo-2,3,15a,16,17,18-hexahydro-1H,15H-4,8-(azeno)-10,14-(metheno)pyrrolo[1,2-j][1,8,10]oxadiazacyclo-heptadecin-16-yl]ethanesulfonamide]"
10,93,"CN(C)S(=O)(=O)N[C@H]1[C@@H](F)CN2C(=O)NCc3ccc(Cl)c(n3)Oc3cccc(c3F)C[C@@H]12 [Example 34, N′-[(15aS,16R,17S)-7-chloro-17,20-difluoro-1-oxo-2,3,15a,16,17,18-hexahydro-1H,15H-4,8-(azeno)-14,10-(metheno)pyrrolo[1,2-j][1,8,10]oxadiazacyclo-heptadecin-16-yl]-N,N-dimethylsulfuric diamide]"
11,109,"CS(=O)(=O)N[C@@H]1[C@@H]2Cc3cccc(c3F)COc3nc(ccc3Cl)CNC(=O)N2CC1(F)F [Example 94, N-[(16aS,17R)-7-chloro-18,18,21-trifluoro-1-oxo-2,3,16a,17,18,19-hexahydro-1H,10H,16H-4,8-(azeno)-15,11-(metheno)pyrrolo[1,2-j][1,8,10]oxadiazacycloocta-decin-17-yl]methanesulfonamide]"
12,104,"CS(=O)(=O)N[C@H]1[C@@H](F)CN2C(=O)NCc3ccc(C(F)F)c(n3)Oc3cccc(c3F)C[C@@H]12 [Example 18, N-[(15aS,16R,17S)-7-(difluoromethyl)-17,20-difluoro-1-oxo-2,3,15a,16,17,18-hexahydro-1H,15H-8,4-(azeno)-10,14-(metheno)pyrrolo[1,2-j][1,8,10]oxadiazacyclo-heptadecin-16-yl]methanesulfonamide]"
